The text below walks through data of patent US20250360145A1, “CSF-1R INHIBITORS AND USES THEREOF” (Myrobalan Therapeutics, Inc., priority 2022, published 2025).

Data set [1] relates to CSF1R phosphorylation in THP-1 cells. Put plainly: Inhibition of CSF1R phosphorylation in THP-1 monocytes (ELISA, Table D). It counts as cell-based, human. Conditions: Homo sapiens; THP-1 cells, pCSF1R ELISA, 1 hour pretreatment, M-CSF 5 minutes. The protocol: The THP-1 human monocyte-like cell line has intact CSF1R signaling that allows for the probing of the activation status of this pathway when stimulated by recombinant CSF. THP-1 cells were expanded in-vitro and pretreated with CSF1R inhibitors for an hour prior to stimulation with recombinant human M-CSF for 5 minutes. The cells were lysed, and the lysate was probed for activated CSF1R (pCSF1R) using ELISA. Using GraphPad Prism, a four-parameter logistic regression was applied to determine the potency of the CSF1R inhibitors.
(In general: In an ELISA, binding on a coated surface is turned into a signal by an enzyme label.)

For data set [2], the system named is BV2 cells. Put plainly: BV2 cell proliferation (Cell Titer Glo). The following applies: Mus musculus, BV-2, CSF1 100 ng/mL, 72 h. It counts as cell-based, murine. (In general: In ATP-based viability assays light output follows the ATP content of the culture.)
Data set [3] can be described thus: In vivo PK study (plasma and brain exposure). The following applies: male; for half-life: CD1, mouse. On the set-up: species or system CD1 mouse. The protocol: The PK profiles were determined in CD1 mouse, and all the procedures and protocols were in accordance with the National Institutes of Health Guide for the Care and Use of Laboratory Animals. The CD1 mouse were purchased from JH Laboratory Animal Co. LTD. The CD1 mouse (23-30 g, 6-8 weeks, male) were randomized and divided into five groups consisting of 21 mouse per group. The test compounds that have been formulated were subjected to PK studies. The test compounds were administrated via p.o. at 45 mg/kg and i.v. at 2 mg/kg. […] The blood samples were placed on wet ice, and serum was collected after centrifugation. Serum samples were frozen and stored at −70° C. The brain samples were dried on filtrate paper, and snap frozen on dry ice and further stored at −70° C. Then, the blood samples and brain samples were further analyzed by LC-MS/MS (Triple Quad 6500+).

In data set [4] the test system is CSF1R phosphorylation in THP-1 cells. The data set is described as follows: p-CSF1R ELISA assay in THP1 cells. In kind it is cell-based. The following applies: Homo sapiens, THP1 cells pre-treated one hour, stimulated with hCSF1, read-out: THP1 pCSFIR ELISA EC50.
Data set [5] is described as follows: Brain protein binding study. It counts as in vitro ADME. The following applies: mouse brain homogenate, equilibrium dialysis 4 hours. The protocol:
On the day of experiment, brain homogenate was thawed in water bath at room temperature and then incubated at 37° C. for 10 min before use. Pretreat the dialysis membrane according to the manufacturer's instructions: the dialysis membrane strips were soaked in ultra pure water at room temperature for approximately 1 hr. After that, each membrane strip that contains 2 membranes was separated and soaked in ethanol:water (20:80 v:v) for approximately 20 min, after which it was ready for use or was stored in the solution at 2-8° C. for up to 1 month. Prior to the experiment, the membrane was rinsed and soaked for 20 min in ultra pure water for use. Then working solutions (400 μM) of test compound and control compound were prepared. Aliquots of working solutions (3 μL) were spiked into blank matrix (597 μL) to achieve final concentrations and mixed thoroughly. Aliquots of 50 μL loading matrix containing test compound or control compound in triplicate was transferred to Sample Collection Plate, respectively. The samples were matched with opposite blank buffer to obtain a final volume of 100 μL with a volume ratio of matrix:Dialysis Buffer (1:1, v:v) in each well immediately. The stop solution was added to these T0 samples of test compound and control compound. The plate was sealed and shaked at 800 rpm for 10 min. Then these T0 samples were stored at 2-8° C. pending further process along with other post-dialysis samples. The dialysis instrument was assembled following manufacture's instructions. An aliquot of 100 μL of the loading matrix containing test compound or control compound was transferred to the donor side of each dialysis well in triplicate and 100 μL of the Dialysis Buffer was loaded to the receiver side of the well. Then the plate was rotated at approximately 100 rpm in a humidified incubator with 5% CO2 at 37±1° C. for 4 hours. At the end of the dialysis, aliquots of 50 μL samples from the buffer side and matrix side of the dialysis device were taken into new 96-well plates (Sample Collection Plates). An equal volume of opposite blank matrix (buffer or matrix) in each sample was added to reach a final volume of 100 μL with volume ratio of matrix:Dialysis Buffer at 1:1 (v:v) in each well. All samples were further processed by protein precipitation for LC/MS/MS analysis.
In general terms: Equilibrium dialysis compares concentrations on both sides of a semipermeable membrane.

A short description of data set [6]: Plasma protein binding study. In kind it is in vitro ADME. The following applies: mouse plasma, equilibrium dialysis 4 hours; read-out: PPB-mouse (Bound) (%) (converted). On the procedure:
On the day of experiment, the plasma was thawed under running cold tap water and centrifuged at 3220×g for 5 min to remove any clots. The pH value was checked and recorded. Only plasma within range of pH 7.0 to pH 8.0 was used. Pretreat the dialysis membrane according to the manufacturer's instructions: the dialysis membrane strips were soaked in ultra pure water at room temperature for approximately 1 hr. After that, each membrane strip that contains 2 membranes was separated and soaked in ethanol:water (20:80 v:v) for approximately 20 min, after which it was ready for use or was stored in the solution at 2-8° C. for up to 1 month. Prior to the experiment, the membrane was rinsed and soaked for 20 min in ultra pure water for use. Working solutions (400 μM) of test compound and control compound were prepared. Aliquots of working solutions (3 μL) were spiked into blank matrix (597 μL) to achieve final concentrations and mixed thoroughly. Aliquots of 50 μL loading matrix containing test compound or control compound in triplicate was transferred to Sample Collection Plate, respectively. The samples were matched with opposite blank buffer to obtain a final volume of 100 μL with a volume ratio of matrix:Dialysis Buffer (1:1, v:v) in each well immediately. The stop solution was added to these T0 samples of test compound and control compound. The plate was sealed and shaked at 800 rpm for 10 min. Then these T0 samples were stored at 2-8° C. pending further process along with other post-dialysis samples. The dialysis instrument was assembled following manufacture's instructions. An aliquot of 100 μL of the loading matrix containing test compound or control compound was transferred to the donor side of each dialysis well in triplicate and 100 μL of the Dialysis Buffer was loaded to the receiver side of the well. Then the plate was rotated at approximately 100 rpm in a humidified incubator with 5% CO2 at 37±1° C. for 4 hours. At the end of the dialysis, aliquots of 50 μL samples from the buffer side and matrix side of the dialysis device were taken into new 96-well plates (Sample Collection Plates). An equal volume of opposite blank matrix (buffer or matrix) in each sample was added to reach a final volume of 100 μL with volume ratio of matrix:Dialysis Buffer at 1:1 (v:v) in each well. All samples were further processed by protein precipitation for LC/MS/MS analysis.

Each structure is given as a SMILES string. Read-outs that look alike come from different tables or passages of the source.

In general, IC50 refers to the concentration that gives 50% inhibition. As to `FC(F)(F)c1ccc(CNc2ccc(Cc3c[nH]c4ncc(Cl)cc34)cn2)cn1` [PLX3397, reference compound], the IC50 in data set [1] was found to be 45.4 nM.

Broadly, the EC50 is the concentration giving half of the maximal effect. Usually bioavailability stands for the share of a dose that reaches the circulation, judged against a reference dose that is usually intravenous. Broadly, the Cmax is the peak of the concentration-time curve. Usually Tmax stands for the time from dosing to the highest level. In the case of `CNC(=O)c1cc(Oc2ccc3nc(N[C@@H]4CCCC[C@H]4O)sc3c2)ccn1` [BLZ945, reference compound], the EC50 in data set [2] amounted to 132 nM; in data set [4], 94.3 nM. In data set [3] (CD1, brain, po, mouse, p.o. 45 mg/kg, BBB penetration), this compound displayed a Kp uu of 0.28. The half-life is 4.36 h in data set [3] (serum, iv, 2 mg/kg, CD1 mouse, i.v. 2 mg/kg, read-out: IV-2mpk T1/2 (converted)) and 3.24 h in data set [3] (serum, po, 45 mg/kg, CD1 mouse, p.o. 45 mg/kg, read-out: PO-45mpk T1/2 (converted)). Moreover, the AUC(0-t) was found to be 11300 ng·h/mL in data set [3] (CD1, po, mouse, p.o. 45 mg/kg, brain, read-out: PO-45mpk AUClast-brain); 102000 ng·h/mL in data set [3] (CD1, po, mouse, p.o. 45 mg/kg, plasma, Tables 7 and 8, read-out: PO-45mpk AUClast-plasma); 7380 ng·h/mL in data set [3] (serum, iv, CD1 mouse, i.v. 2 mg/kg, read-out: IV-2mpk AUClast); 105000 ng·h/mL in data set [3] (serum, po, CD1 mouse, p.o. 45 mg/kg, Tables 5 and 6, read-out: PO-45mpk AUClast). The AUC(0-inf) in data set [3] (serum, iv, CD1 mouse, i.v. 2 mg/kg, read-out: IV-2mpk AUCInf) was determined as 7400 ng·h/mL; in data set [3] (serum, po, CD1 mouse, p.o. 45 mg/kg, read-out: PO-45mpk AUCInf), 106000 ng·h/mL. For the same compound, in data set [3] (serum, iv, CD1 mouse, i.v. 2 mg/kg, read-out: IV-2mpk CL (converted)), the clearance is 4.45 mL/min/kg. In addition, the Vd in data set [3] (serum, iv, CD1 mouse, i.v. 2 mg/kg, read-out: IV-2mpk VSS) was 1.29 L/kg. Further, in data set [3] (serum, oral, CD1 mouse, p.o. 45 mg/kg vs i.v. 2 mg/kg), the bioavailability was determined as 62.6%. In addition, the Cmax in data set [3] (serum, po, CD1 mouse, p.o. 45 mg/kg, read-out: PO-45mpk Cmax) amounted to 43900 ng/mL. For the same compound, the Tmax in data set [3] (serum, po, CD1 mouse, p.o. 45 mg/kg, read-out: PO-45mpk Tmax) stood at 0.5 h. Also, in data set [5], the “BPB-mouse (Bound) (%)” value is reported as 96.94%. Moreover, the fraction unbound at 4 h, 2 µM in data set [6] was 0.0123.
